Our source for the AC50 values is PubChem BioAssay AID588827 (Broad Institute, 2011).

SMILES strings stand for the structures. Records with an inconclusive call do not appear.

This experiment relates to NIH3T3 R4 HSF-1 GFP reporter, heat shock, 48 h. Briefly: GFP reporter loss versus dox-driven RFP – NIH3T3 R4 cells, cherry-pick, set 4, dose response (AID 588827).
`C=C(C)C(=O)O[C@H]1C/C(C)=C\C(=O)/C=C(\C)[C@H](O)[C@@H]2OC(=O)C(=C)[C@@H]21`: the AC50 is 12.9 µM.
The result for `Cc1ccc(NC2=C/C(=N\S(=O)(=O)c3cccs3)c3ccccc3C2=O)c(C)c1` reads 1.42 µM.
The figure for `Cc1cc([N+](=O)[O-])c2ccccc2[n+]1[O-]` is 11 µM.
As to `COc1ccccc1-c1cc(C(F)(F)F)nc(S(=O)(=O)CCCC(=O)NCc2ccc(F)cc2)n1`, the concentration at half-maximal activity (AC50) was 5.26 µM.
The result for `CC12CCC(C/C1=N\N=C1\NC(=O)/C(=C\c3ccc(Cl)cc3)S1)C2(C)C` (stereo not given) reads 2.11 µM; that for `COc1ccc(C[C@H]2NC[C@H](O)[C@H]2OC(C)=O)cc1`, 0.361 µM.
The figure for `CCOC(=O)c1c(C)[nH]c2c1-c1ccccc1C(=O)C2=O` is 1.23 µM; for `C(=N\NC1=Nc2cccc3cccc1c23)/c1ccccn1` it is 19.2 µM.
The result for `O=C(CCl)N(c1ccccc1)C1CCCCC1` reads 5.18 µM.
On to `O=C(CCl)Nc1cn(-c2ccccc2)nc1-c1ccc(F)cc1`, for which the AC50 is 5.2 µM.
The result for `Cn1c(=O)c([N+](=O)[O-])c(Cl)c2ccccc21` reads 14.2 µM; that for `CC(C)(C)c1ccc2c(c1)OC(C(=O)N/N=C\c1ccc[nH]1)CO2` (stereo not given), 0.515 µM; that for `CCc1ccc(C2=NNC(=Nc3cccc(S(=O)(=O)N(C)C)c3)SC2)cc1`, 15.7 µM.
The figure for `O=S(=O)(c1ccc2c(c1)C(=NO)c1cc(S(=O)(=O)N3CCCCC3)ccc1-2)N1CCCCC1` is 2.49 µM.
The figure for `CCOC(=O)Cc1nnc2c(Nc3ccccc3F)nc3nonc3n12` is 7.38 µM.
